“And” between values parts separate entries of the source, which are not always exact repeats. Equal entries are not always repeated. Toxic doses and inconclusive results are not listed.
System: BDF1 mice, P388 leukemia ip, median survival T/C
Assay: NCI In Vivo Anticancer Drug Screen. Data for tumor model P388 Leukemia (intraperitoneal) in B6D2F1 (BDF1) mice
Conditions: endpoint: median survival time, higher = longer survival
Method in brief: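 Each value expresses how treatment altered survival: treated-mouse outcome over vehicle-mouse outcome, both groups bearing the transplanted tumour.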

[1] = dose: 100.0 mg/kg/injection, schedule: Q01DX009 (ip), vehicle: saline with Tween-80
[2] = dose: 200.0 mg/kg/injection, schedule: Q01DX009 (ip), vehicle: saline with Tween-80
[3] = dose: 100.0 mg/kg/injection, schedule: Q01DX001 (ip), vehicle: saline with Tween-80
[4] = dose: 2.0 mg/kg/injection, schedule: Q01DX009 (ip), vehicle: saline
[5] = dose: 4.0 mg/kg/injection, schedule: Q01DX009 (ip), vehicle: saline
[6] = dose: 50.0 mg/kg/injection, schedule: Q04DX003 (ip), vehicle: saline
[7] = dose: 100.0 mg/kg/injection, schedule: Q01DX001 (ip), vehicle: saline
[8] = dose: 100.0 mg/kg/injection, schedule: Q01DX001 (ip), vehicle: Klucel (hydroxypropylcellulose) (HPC)
[9] = dose: 50.0 mg/kg/injection, schedule: Q01DX009 (ip), vehicle: Klucel (hydroxypropylcellulose) (HPC)
[10] = dose: 100.0 mg/kg/injection, schedule: Q01DX009 (ip), vehicle: Klucel (hydroxypropylcellulose) (HPC)
[11] = dose: 200.0 mg/kg/injection, schedule: Q01DX009 (ip), vehicle: Klucel (hydroxypropylcellulose) (HPC)
[12] = dose: 50.0 mg/kg/injection, schedule: Q01DX009 (ip), vehicle: saline with Tween-80
[13] = dose: 100.0 mg/kg/injection, schedule: Q04DX003 (ip), vehicle: saline
[14] = dose: 200.0 mg/kg/injection, schedule: Q04DX003 (ip), vehicle: saline
[15] = dose: 25.0 mg/kg/injection, schedule: Q01DX009 (ip), vehicle: other
[16] = dose: 50.0 mg/kg/injection, schedule: Q01DX009 (ip), vehicle: other

**Q.** Which results are given for `COC(=O)C1(C)CCCC2(C)C1CCC13OCC(CC21)C(=C(C)C)C3OC(C)=O` (stereo not given)?
**A.** T/C [1]: 100 % of control; T/C [2]: 100 % of control; T/C (dose: 400.0 mg/kg/injection, schedule: Q01DX009 (ip), vehicle: saline with Tween-80): 90 % of control

**Q.** What does the source list for `O=S(=O)(Nc1ccc(NS(=O)(=O)c2ccccc2)c(S(=O)(=O)c2ccccc2)c1)c1ccccc1`?
**A.** T/C [3]: 100 % of control; T/C (dose: 200.0 mg/kg/injection, schedule: Q01DX001 (ip), vehicle: saline with Tween-80): 100 % of control; T/C (dose: 400.0 mg/kg/injection, schedule: Q01DX001 (ip), vehicle: saline with Tween-80): 100 % of control

**Q.** Which results are given for `CC[C@](O)(C(=O)O)c1cc2n(c(=O)c1CO)Cc1cc3ccccc3nc1-2`?
**A.** T/C (dose: 1.0 mg/kg/injection, schedule: Q01DX009 (ip), vehicle: water): 112 % of control; T/C [4]: 156 % of control; T/C (dose: 2.0 mg/kg/injection, schedule: Q01DX009 (ip), vehicle: water): 150 % of control; T/C (dose: 3.13 mg/kg/injection, schedule: Q04DX002 (ip), vehicle: saline): 116 % of control; T/C [5]: 171 % of control; T/C (dose: 12.5 mg/kg/injection, schedule: Q04DX002 (ip), vehicle: saline): 161 % of control; T/C (dose: 12.5 mg/kg/injection, schedule: Q04DX009 (ip), vehicle: saline): 192 % of control; T/C (dose: 14.4 mg/kg/injection, schedule: Q04DX003 (ip), vehicle: saline): 175 % of control; T/C (dose: 18.0 mg/kg/injection, schedule: Q04DX003 (ip), vehicle: saline): 175 % of control; T/C (dose: 24.0 mg/kg/injection, schedule: Q04DX003 (ip), vehicle: saline): 214 % of control; T/C (dose: 25.0 mg/kg/injection, schedule: Q04DX002 (ip), vehicle: saline): 199 % of control; T/C (dose: 25.0 mg/kg/injection, schedule: Q04DX009 (ip), vehicle: saline): 192 % of control; T/C (dose: 30.0 mg/kg/injection, schedule: Q04DX003 (ip), vehicle: saline): 201 % of control; T/C (dose: 33.0 mg/kg/injection, schedule: Q04DX003 (ip), vehicle: saline): 168 % of control; T/C (dose: 40.0 mg/kg/injection, schedule: Q04DX003 (ip), vehicle: saline): 224 % of control; T/C (dose: 40.0 mg/kg/injection, schedule: Q04DX003 (ip), vehicle: water): 104 % of control; T/C [6]: 172 % of control; T/C (dose: 66.7 mg/kg/injection, schedule: Q04DX003 (ip), vehicle: saline): 90 % of control; T/C (dose: 75.0 mg/kg/injection, schedule: Q04DX003 (ip), vehicle: saline): 200 % of control; T/C [7]: 172 % of control; T/C (dose: 150.0 mg/kg/injection, schedule: Q01DX001 (ip), vehicle: saline): 43 % of control; T/C (dose: 175.0 mg/kg/injection, schedule: Q01DX001 (ip), vehicle: saline): 90 % of control

**Q.** Which results are given for `COC(=O)CC1CCN(C(=O)OCc2ccccc2)C(Cc2c[nH]c3ccccc23)C1=O` (stereo not given)?
**A.** T/C [4]: 105 % of control; T/C (dose: 3.0 mg/kg/injection, schedule: Q01DX009 (ip), vehicle: saline): 109 % of control; T/C [5]: 114 % of control; T/C (dose: 8.0 mg/kg/injection, schedule: Q01DX009 (ip), vehicle: saline): 98 % of control; T/C (dose: 10.0 mg/kg/injection, schedule: Q01DX009 (ip), vehicle: saline): 109 % of control; T/C (dose: 16.0 mg/kg/injection, schedule: Q01DX009 (ip), vehicle: saline): 102 % of control; T/C (dose: 30.0 mg/kg/injection, schedule: Q01DX009 (ip), vehicle: saline): 104 % of control; T/C (dose: 32.0 mg/kg/injection, schedule: Q01DX009 (ip), vehicle: saline): 95 % of control; T/C (dose: 60.0 mg/kg/injection, schedule: Q01DX009 (ip), vehicle: saline): 109 % of control

**Q.** `C=C1C(=O)OC2/C=C(\C)CC(O)/C=C(/C)CC(OC(=O)C(O)(CO)C(C)S)C12` (stereo not given) was tested. Which T/C (dose: 100.0 mg/kg/injection, schedule: Q04DX002 (ip), vehicle: Klucel (hydroxypropylcellulose) (HPC)) did it give?
**A.** 120 % of control

**Q.** And the T/C (dose: 200.0 mg/kg/injection, schedule: Q04DX002 (ip), vehicle: Klucel (hydroxypropylcellulose) (HPC))?
**A.** 118 % of control

**Q.** Which results are given for `Cc1cc(=O)[nH]c2c1ccc1[nH]c(=O)cc(C)c12`?
**A.** T/C [8]: 91 % of control; T/C (dose: 200.0 mg/kg/injection, schedule: Q01DX001 (ip), vehicle: Klucel (hydroxypropylcellulose) (HPC)): 87 % of control

**Q.** Which T/C [9] does the source give for `Nc1cc(N)cc(Cc2ccccc2)c1` here?
**A.** 112 % of control

**Q.** And the T/C [10]?
**A.** 116 % of control

**Q.** What about the T/C [11] of the same molecule?
**A.** 116 % of control

**Q.** Which T/C (dose: 25.0 mg/kg/injection, schedule: Q01DX009 (ip), vehicle: saline with Tween-80) does the source give for `Cn1nc(N)c2ncc(C(Cl)(Cl)Cl)nc21` here?
**A.** 91 % of control

**Q.** What about the T/C (dose: 50.0 mg/kg/injection, schedule: Q04DX003 (ip), vehicle: saline with Tween-80) of the same molecule?
**A.** 105 % of control

**Q.** What about the T/C (dose: 100.0 mg/kg/injection, schedule: Q04DX003 (ip), vehicle: saline with Tween-80) of the same molecule?
**A.** 90 % of control

**Q.** Which T/C [12] does the source give for `CCCCCCCCCCC(O)CCCCCCCCCC` here?
**A.** 100 % of control

**Q.** What about the T/C [1] of the same molecule?
**A.** 95 % of control

**Q.** What about the T/C [2] of the same molecule?
**A.** 90 % of control

**Q.** What does the source list for `c1ccc(Nc2ncc3cnccn23)cc1`?
**A.** T/C (dose: 12.5 mg/kg/injection, schedule: Q04DX003 (ip), vehicle: saline): 95 % of control; T/C (dose: 25.0 mg/kg/injection, schedule: Q04DX003 (ip), vehicle: saline): 105 % of control; T/C [6]: 92 % of control; T/C [13]: 103 % of control; T/C [14]: 97 % of control and 101 % of control; T/C (dose: 300.0 mg/kg/injection, schedule: Q04DX003 (ip), vehicle: saline): 115 % of control

**Q.** With `OCCNCc1ccc2ccccc2n1` as the molecule, how does the T/C [13] read?
**A.** 100 % of control

**Q.** And the T/C [14]?
**A.** 100 % of control

**Q.** With `Clc1ccc(C2(Cn3ccnc3)OCC(COc3ccc(-c4ccccc4)cc3)O2)c(Cl)c1` (stereo not given) as the molecule, how does the T/C [12] read?
**A.** 108 % of control

**Q.** What about the T/C [1] of the same molecule?
**A.** 101 % of control

**Q.** What about the T/C [2] of the same molecule?
**A.** 99 % of control

**Q.** With `O=C(NC(C(=O)O)C(O)c1cn(C(=O)OCc2ccccc2)cn1)OCc1ccccc1` (stereo not given) as the molecule, how does the T/C [12] read?
**A.** 113 % of control

**Q.** What about the T/C [1] of the same molecule?
**A.** 110 % of control

**Q.** And the T/C [2]?
**A.** 98 % of control

**Q.** Which results are given for `CC1=C(O)/C(=C\C(C)CCCC(C)/C=C/C=C(\C)CCCc2ccoc2)OC1=O` (stereo not given)?
**A.** T/C (dose: 5.0 mg/kg/injection, schedule: Q01DX009 (ip), vehicle: other): 98 % of control; T/C (dose: 10.0 mg/kg/injection, schedule: Q01DX009 (ip), vehicle: other): 96 % of control; T/C (dose: 20.0 mg/kg/injection, schedule: Q01DX009 (ip), vehicle: other): 97 % of control

**Q.** `CC(=O)OCc1cc(=O)n(C)c2c3c4c(cc12)c(C)cc(=O)n4CO3` was tested. Which T/C [8] did it give?
**A.** 120 % of control

**Q.** With `N#C/C(=C\c1ccc(O)cc1)c1ccc([N+](=O)[O-])cc1` as the molecule, how does the T/C (dose: 25.0 mg/kg/injection, schedule: Q01DX001 (ip), vehicle: saline) read?
**A.** 98 % of control

**Q.** What about the T/C (dose: 50.0 mg/kg/injection, schedule: Q01DX001 (ip), vehicle: saline) of the same molecule?
**A.** 100 % of control

**Q.** And the T/C [3]?
**A.** 97 % of control

**Q.** What about the T/C [7] of the same molecule?
**A.** 96 % of control

**Q.** With `CC1=C(C(=O)OCc2ccccc2)C(c2ccc(Cl)cc2)C(C(=O)OCc2ccccc2)=C(C)N1` as the molecule, how does the T/C (dose: 12.5 mg/kg/injection, schedule: Q01DX009 (ip), vehicle: other) read?
**A.** 100 % of control

**Q.** And the T/C [15]?
**A.** 94 % of control

**Q.** What about the T/C [16] of the same molecule?
**A.** 90 % of control

**Q.** What about the T/C (dose: 100.0 mg/kg/injection, schedule: Q01DX009 (ip), vehicle: other) of the same molecule?
**A.** 89 % of control

**Q.** What about the T/C (dose: 200.0 mg/kg/injection, schedule: Q01DX009 (ip), vehicle: other) of the same molecule?
**A.** 90 % of control

**Q.** What does the source list for `CC(=O)OC1(C)N=NC2(CCCCC2)O1` (stereo not given)?
**A.** T/C [12]: 102 % of control; T/C [1]: 98 % of control; T/C [2]: 112 % of control

**Q.** What does the source list for `CN1C(=O)CN=C(c2ccc[nH]2)c2cc(Cl)ccc21` (tested in a mixture with another compound)?
**A.** T/C [9]: 104 % of control; T/C [10]: 109 % of control; T/C (dose: 100.0 mg/kg/injection, schedule: Q04DX003 (ip), vehicle: Klucel (hydroxypropylcellulose) (HPC)): 100 % of control; T/C [11]: 100 % of control; T/C (dose: 200.0 mg/kg/injection, schedule: Q04DX003 (ip), vehicle: Klucel (hydroxypropylcellulose) (HPC)): 104 % of control; T/C (dose: 400.0 mg/kg/injection, schedule: Q04DX003 (ip), vehicle: Klucel (hydroxypropylcellulose) (HPC)): 90 % of control

**Q.** How did the T/C (dose: 12.5 mg/kg/injection, schedule: Q01DX001 (ip), vehicle: saline with Tween-80) turn out when `O=c1c(Cl)c2cc3c(cc2c2ccccc12)nc1ccccc1n3-c1ccccc1` was run?
**A.** 88 % of control

**Q.** And the T/C (dose: 25.0 mg/kg/injection, schedule: Q01DX001 (ip), vehicle: saline with Tween-80)?
**A.** 88 % of control

**Q.** For `FC(F)(F)C(F)(F)c1nc2nc(Cl)c(Cl)nc2[nH]1`, which T/C [15] is on record?
**A.** 100 % of control

**Q.** And the T/C [16]?
**A.** 114 % of control

Reference: PubChem BioAssay AID328 (DTP/NCI, 2004)
